In patent US8791148B2, “Substituted benzimidazolone derivatives, medicaments comprising them and their use” (AbbVie Deutschland GmbH & Co. KG, priority 2006, dated 2014) one finds Ki data, which are given here for 2 molecules.

Molecules are shown by their SMILES. Some results are limits rather than exact numbers.

The test deals with T1, human vasopressin V1b receptor (Homo sapiens, UniProt P47901).
T1 construct: expressed in transfected cells; host or cells: CHO-K1 (cell line hV1b-3H2_CHO), membrane preparation
T1 sequence (P47901 1-424): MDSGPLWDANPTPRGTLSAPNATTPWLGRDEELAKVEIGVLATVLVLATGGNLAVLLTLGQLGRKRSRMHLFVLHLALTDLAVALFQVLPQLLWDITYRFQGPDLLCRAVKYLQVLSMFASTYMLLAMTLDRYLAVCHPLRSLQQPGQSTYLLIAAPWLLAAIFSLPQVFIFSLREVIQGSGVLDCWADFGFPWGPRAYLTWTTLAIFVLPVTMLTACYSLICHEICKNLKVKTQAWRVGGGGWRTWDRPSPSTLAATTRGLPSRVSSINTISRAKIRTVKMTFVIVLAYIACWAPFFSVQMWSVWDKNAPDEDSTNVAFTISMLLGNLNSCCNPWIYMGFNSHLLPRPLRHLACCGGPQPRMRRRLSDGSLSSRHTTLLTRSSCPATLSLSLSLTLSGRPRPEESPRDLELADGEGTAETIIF
Put plainly: Vasopressin V1b receptor binding assay. Particulars: membranes from CHO-K1 cells with stably expressed human V1b receptors; displacement of 1.5 nM 3H-AVP; read-out: V1b receptor affinity (affinity constant Ki). An outline of the steps:
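Membranes expressing human V1b receptor were incubated with radioligand and test compound (2% DMSO final) in 50 mM Tris, 10 mM MgCl2, 0.1% BSA, pH 7.4, for 60 min at room temperature, in triplicate. 1 uM AVP defined nonspecific binding. Bound ligand was separated by filtration and counted by scintillation; Ki came from nonlinear regression.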

`COc1ccc(S(=O)(=O)n2c(=O)n(C(C(=O)N3CC[C@H](CNC4CCN(C)CC4)C3)c3ccccc3)c3cc(C#N)ccc32)cc1` (stereo partly drawn) [Example 255, 1-(4-Methoxy-benzenesulfonyl)-3-(2-{(R)-3-[(1-methyl-piperidin-4-ylamino)-methyl]-pyrrolidin-1-yl}-2-oxo-1-phenyl-ethyl)-2-oxo-2,3-dihydro-1H-benzoimidazole-5-carbonitrile; compound with trifluoroacetic acid]: the Ki is less than 100 nM.

In the case of `COc1ccc(S(=O)(=O)n2c(=O)n(C(C(=O)N3CC[C@H](CN(C)C4CCN(C)CC4)C3)c3ccccc3)c3cc(C#N)ccc32)cc1` (stereo partly drawn) [Example 256, 1-(4-Methoxy-benzenesulfonyl)-3-[2-((R)-3-{[methyl-(1-methyl-piperidin-4-yl)-amino]-methyl}-pyrrolidin-1-yl)-2-oxo-1-phenyl-ethyl]-2-oxo-2,3-dihydro-1H-benzoimidazole-5-carbonitrile; compound with trifluoroacetic acid], the Ki is less than 100 nM.

The Ki is a measure of affinity in units of concentration, obtained from inhibition or displacement.
